{"source": "patent US8802597B2", "about": "“Herbicidal pyrimidines” (E I du Pont de Nemours and Company, priority 2003, dated 2014)", "format_in_all_cases": "in vivo", "key": {"[1]": {"tested_on": "lambsquarters (CHEAL, Chenopodium album L.)", "experiment": "Test H mixtures of compound 1 with diflufenzopyr", "conditions": "foliage spray", "description": "(§1) This test evaluated the effect of mixtures of compound 1 with diflufenzopyr on several plant species. Seeds of test plants consisting of large crabgrass (DIGSA, Digitaria sanguinalis (L.) Scop.), lambsquarters (CHEAL, Chenopodium album L.), redroot pigweed (AMARE, Amaranthus retroflexus L.), cocklebur (XANST, Xanthium strumarium L.), barnyardgrass (ECHCG; Echinochloa crus-galli (L.) Beauv.), corn (ZEAMD, Zea mays L. cv. ‘Pioneer 33G26’), scarlet (red) morningglory (IPOCO, Ipomoea coccinea L.), giant foxtail (SETFA, Setaria faberi Herrm.) and velvetleaf (ABUTH, Abutilon theophrasti Medik.) were planted in pots containing Redi-Earth® planting medium (Scotts Company, 14111 Scottslawn Road, Marysville, Ohio 43041) comprising spaghnum peat moss, vermiculite, wetting agent and starter nutrients. Seeds of small-seeded species were planted about 1 cm deep; larger seeds were planted about 2.5 cm deep. Plants were grown in a greenhouse using supplemental lighting to maintain a photoperiod of about 14 hours; daytime and nighttime temperatures were about 25-30° C. and 22-25° C., respectively. Balanced fertilizer was applied through the watering system. The plants were grown for 7 to 11 days so that at time of treatment the plants ranged in height from 2 to 18 cm (1- to 4-leaf stage). Treatments consisted of Compound 1 and diflufenzopyr alone and in combination, suspended or dissolved in an aqueous solvent comprising glycerin and Tween nonionic surfactant and applied as a foliage spray using a volume of 541 L/ha. Each treatment was replicated four times. […] Treated plants and controls were maintained in the greenhouse and watered as needed with care to not wet the foliage for the first 24 hours after treatment. The effects on the plants approximately 3 weeks after treatment were visually compared to untreated controls. Plant response ratings were calculated as the means of the four replicates, based on a scale of 0 to 100 where 0 is no effect and 100 is complete control. Colby's Equation was used to determine the herbicidal effects expected from the mixtures. Colby's Equation (Colby, S. R. “Calculating Synergistic and Antagonistic Responses of Herbicide Combinations,” Weeds, 15(1), pp 20-22 (1967)) calculates the expected additive effect of herbicidal mixtures, and for two active ingredients is of the form: Pa+b=Pa+Pb−(PaPb/100) wherein Pa+b is the percentage effect of the mixture expected from additive contribution of the individual components, • Pa is the observed percentage effect of the first active ingredient at the same use rate as in the mixture, and • Pb is the observed percentage effect of the second active ingredient at the same use rate as in the mixture."}, "[2]": {"tested_on": "corn (ZEAMD, Zea mays L. cv. ‘Pioneer 33G26’)", "experiment": "Test H mixtures of compound 1 with diflufenzopyr", "conditions": "foliage spray", "description": "as §1"}, "[3]": {"tested_on": "cocklebur (XANST, Xanthium strumarium L.)", "experiment": "Test H mixtures of compound 1 with diflufenzopyr", "conditions": "foliage spray", "description": "as §1"}, "[4]": {"tested_on": "velvetleaf (ABUTH, Abutilon theophrasti Medik.)", "experiment": "Test H mixtures of compound 1 with diflufenzopyr", "conditions": "foliage spray", "description": "as §1"}, "[5]": {"tested_on": "redroot pigweed (AMARE, Amaranthus retroflexus L.)", "experiment": "Test H mixtures of compound 1 with diflufenzopyr", "conditions": "foliage spray", "description": "as §1"}, "[6]": {"tested_on": "barnyardgrass (ECHCG; Echinochloa crus-galli (L.) Beauv.)", "experiment": "Test H mixtures of compound 1 with diflufenzopyr", "conditions": "foliage spray", "description": "as §1"}, "[7]": {"tested_on": "large crabgrass (DIGSA, Digitaria sanguinalis (L.) Scop.)", "experiment": "Test H mixtures of compound 1 with diflufenzopyr", "conditions": "foliage spray", "description": "as §1"}, "[8]": {"tested_on": "scarlet (red) morningglory (IPOCO, Ipomoea coccinea L.)", "experiment": "Test H mixtures of compound 1 with diflufenzopyr", "conditions": "foliage spray", "description": "as §1"}, "[9]": {"tested_on": "giant foxtail (SETFA, Setaria faberi Herrm.)", "experiment": "Test H mixtures of compound 1 with diflufenzopyr", "conditions": "foliage spray", "description": "as §1"}, "[10]": {"tested_on": "redroot pigweed (AMARE; Amaranthus retroflexus)", "experiment": "Test I mixtures of compound 9 with metsulfuron-methyl and chlorsulfuron-metsulfuron-methyl (5:1)", "conditions": "applied alone", "description": "(§2) This test evaluated the effect of mixtures of compound 9 with metsulfuron-methyl and with a 5:1 by weight combination of chlorsulfuron and metsulfuron-methyl on several plant species. Seeds of test plants consisting of wheat (TRZAW; Triticum aestivum), wild buckwheat, (POLCO; Polygonum convolvulus), redroot pigweed (AMARE; Amaranthus retroflexus), wild mustard (SINAR; Sinapis arvensis), catchweed bedstraw (GALAP; Galium aparine), Russian thistle (SASKR; Salsola kali), common chickweed (STEME; Stellaria media), kochia (KCHSC; Kochia scoparia), and lambsquarters (CHEAL; Chenopodium album) were planted into a blend of loam soil and sand. Plants were grown in a greenhouse using supplemental lighting to maintain a photoperiod of about 14 hours; daytime and nighttime temperatures were about 23° C. and 16° C., respectively. Balanced fertilizer was applied through the watering system. The plants were grown for 10 to 23 days so that at time of treatment the plants ranged from 2- to 8-leaf stage. Treatments consisted of Compound 9, metsulfuron-methyl, and chlorsulfuron-metsulfuron-methyl (5:1) alone and in combination. The treatments were formulated in a non-phytotoxic solvent mixture which included a surfactant and applied as a foliage spray using a volume of 280-458 L/ha. Each treatment was replicated three times. […] Treated plants and controls were maintained in the greenhouse and watered as needed with care to not wet the foliage for the first 24 hours after treatment. The effects on the plants approximately 17 days after treatment were visually compared to untreated controls. Plant response ratings were calculated as the means of the three replicates, based on a scale of 0 to 100 where 0 is no effect and 100 is complete control. Colby's Equation was used to determine the herbicidal effects expected from the mixtures."}, "[11]": {"tested_on": "catchweed bedstraw (GALAP; Galium aparine)", "experiment": "Test I mixtures of compound 9 with metsulfuron-methyl and chlorsulfuron-metsulfuron-methyl (5:1)", "conditions": "applied alone", "description": "as §2"}, "[12]": {"tested_on": "wild buckwheat (POLCO; Polygonum convolvulus)", "experiment": "Test I mixtures of compound 9 with metsulfuron-methyl and chlorsulfuron-metsulfuron-methyl (5:1)", "conditions": "applied alone", "description": "as §2"}, "[13]": {"tested_on": "Russian thistle (SASKR; Salsola kali)", "experiment": "Test I mixtures of compound 9 with metsulfuron-methyl and chlorsulfuron-metsulfuron-methyl (5:1)", "conditions": "applied alone", "description": "as §2"}, "[14]": {"tested_on": "common chickweed (STEME; Stellaria media)", "experiment": "Test I mixtures of compound 9 with metsulfuron-methyl and chlorsulfuron-metsulfuron-methyl (5:1)", "conditions": "applied alone", "description": "as §2"}, "[15]": {"tested_on": "wild mustard (SINAR; Sinapis arvensis)", "experiment": "Test I mixtures of compound 9 with metsulfuron-methyl and chlorsulfuron-metsulfuron-methyl (5:1)", "conditions": "applied alone", "description": "as §2"}, "[16]": {"tested_on": "wheat (TRZAW; Triticum aestivum)", "experiment": "Test I mixtures of compound 9 with metsulfuron-methyl and chlorsulfuron-metsulfuron-methyl (5:1)", "conditions": "Metsulfuron-Methyl series, applied alone", "description": "as §2"}, "[17]": {"tested_on": "kochia (KCHSC; Kochia scoparia)", "experiment": "Test I mixtures of compound 9 with metsulfuron-methyl and chlorsulfuron-metsulfuron-methyl (5:1)", "conditions": "applied alone", "description": "as §2"}, "[18]": {"tested_on": "lambsquarters (CHEAL; Chenopodium album)", "experiment": "Test I mixtures of compound 9 with metsulfuron-methyl and chlorsulfuron-metsulfuron-methyl (5:1)", "conditions": "applied alone", "description": "as §2"}}, "data": [{"smiles": "C/C(=N\\NC(=O)Nc1cc(F)cc(F)c1)c1ncccc1C(=O)O", "note": "[Diflufenzopyr, diflufenzopyr, reference compound]", "values": [{"measurement": "Obsd. observed effect (0 to 100 scale)", "setting": "[1]; Diflufenzopyr 12 g a.i./ha", "result": 61}, {"measurement": "Obsd. observed effect (0 to 100 scale)", "setting": "[1]; Diflufenzopyr 25 g a.i./ha", "result": 76}, {"measurement": "Obsd. observed effect (0 to 100 scale)", "setting": "[1]; Diflufenzopyr 50 g a.i./ha", "result": 80}, {"measurement": "Obsd. observed effect (0 to 100 scale)", "setting": "[2]; Diflufenzopyr 12 g a.i./ha", "result": 0}, {"measurement": "Obsd. observed effect (0 to 100 scale)", "setting": "[2]; Diflufenzopyr 25 g a.i./ha", "result": 0}, {"measurement": "Obsd. observed effect (0 to 100 scale)", "setting": "[2]; Diflufenzopyr 50 g a.i./ha", "result": 0}, {"measurement": "Obsd. observed effect (0 to 100 scale)", "setting": "[3]; Diflufenzopyr 12 g a.i./ha", "result": 43}, {"measurement": "Obsd. observed effect (0 to 100 scale)", "setting": "[3]; Diflufenzopyr 25 g a.i./ha", "result": 60}, {"measurement": "Obsd. observed effect (0 to 100 scale)", "setting": "[3]; Diflufenzopyr 50 g a.i./ha", "result": 68}, {"measurement": "Obsd. observed effect (0 to 100 scale)", "setting": "[4]; Diflufenzopyr 12 g a.i./ha", "result": 50}, {"measurement": "Obsd. observed effect (0 to 100 scale)", "setting": "[4]; Diflufenzopyr 25 g a.i./ha", "result": 78}, {"measurement": "Obsd. observed effect (0 to 100 scale)", "setting": "[4]; Diflufenzopyr 50 g a.i./ha", "result": 68}, {"measurement": "Obsd. observed effect (0 to 100 scale)", "setting": "[5]; Diflufenzopyr 12 g a.i./ha", "result": 73}, {"measurement": "Obsd. observed effect (0 to 100 scale)", "setting": "[5]; Diflufenzopyr 25 g a.i./ha", "result": 91}, {"measurement": "Obsd. observed effect (0 to 100 scale)", "setting": "[5]; Diflufenzopyr 50 g a.i./ha", "result": 95}, {"measurement": "Obsd. observed effect (0 to 100 scale)", "setting": "[6]; Diflufenzopyr 12 g a.i./ha", "result": 5}, {"measurement": "Obsd. observed effect (0 to 100 scale)", "setting": "[6]; Diflufenzopyr 25 g a.i./ha", "result": 10}, {"measurement": "Obsd. observed effect (0 to 100 scale)", "setting": "[6]; Diflufenzopyr 50 g a.i./ha", "result": 23}, {"measurement": "Obsd. observed effect (0 to 100 scale)", "setting": "[7]; Diflufenzopyr 12 g a.i./ha", "result": 0}, {"measurement": "Obsd. observed effect (0 to 100 scale)", "setting": "[7]; Diflufenzopyr 25 g a.i./ha", "result": 1}, {"measurement": "Obsd. observed effect (0 to 100 scale)", "setting": "[7]; Diflufenzopyr 50 g a.i./ha", "result": 8}, {"measurement": "Obsd. observed effect (0 to 100 scale)", "setting": "[8]; Diflufenzopyr 12 g a.i./ha", "result": 77}, {"measurement": "Obsd. observed effect (0 to 100 scale)", "setting": "[8]; Diflufenzopyr 25 g a.i./ha", "result": 83}, {"measurement": "Obsd. observed effect (0 to 100 scale)", "setting": "[8]; Diflufenzopyr 50 g a.i./ha", "result": 82}, {"measurement": "Obsd. observed effect (0 to 100 scale)", "setting": "[9]; Diflufenzopyr 12 g a.i./ha", "result": 41}, {"measurement": "Obsd. observed effect (0 to 100 scale)", "setting": "[9]; Diflufenzopyr 25 g a.i./ha", "result": 58}, {"measurement": "Obsd. observed effect (0 to 100 scale)", "setting": "[9]; Diflufenzopyr 50 g a.i./ha", "result": 59}]}, {"smiles": "COC(=O)c1ccccc1S(=O)(=O)NC(=O)Nc1nc(C)nc(OC)n1", "note": "[Metsulfuron-Methyl]", "values": [{"measurement": "AMARE Obsd. (observed effect)", "setting": "[10]; 4 g a.i./ha", "result": 0}, {"measurement": "AMARE Obsd. (observed effect)", "setting": "[10]; 8 g a.i./ha", "result": 0}, {"measurement": "GALAP Obsd. (observed effect)", "setting": "[11]; 4 g a.i./ha", "result": 0}, {"measurement": "GALAP Obsd. (observed effect)", "setting": "[11]; 8 g a.i./ha", "result": 0}, {"measurement": "POLCO Obsd. (observed effect)", "setting": "[12]; 4 g a.i./ha", "result": 0}, {"measurement": "POLCO Obsd. (observed effect)", "setting": "[12]; 8 g a.i./ha", "result": 0}, {"measurement": "SASKR Obsd. (observed effect)", "setting": "[13]; 4 g a.i./ha", "result": 0}, {"measurement": "SASKR Obsd. (observed effect)", "setting": "[13]; 8 g a.i./ha", "result": 0}, {"measurement": "STEME Obsd. (observed effect)", "setting": "[14]; 4 g a.i./ha", "result": 0}, {"measurement": "STEME Obsd. (observed effect)", "setting": "[14]; 8 g a.i./ha", "result": 0}, {"measurement": "SINAR Obsd. (observed effect)", "setting": "[15]; 4 g a.i./ha", "result": 0}, {"measurement": "SINAR Obsd. (observed effect)", "setting": "[15]; 8 g a.i./ha", "result": 0}, {"measurement": "TRZAW Obsd. (observed effect)", "setting": "[16]; 4 g a.i./ha", "result": 0}, {"measurement": "TRZAW Obsd. (observed effect)", "setting": "[16]; 8 g a.i./ha", "result": 0}, {"measurement": "KCHSC Obsd. (observed effect)", "setting": "[17]; 4 g a.i./ha", "result": 0}, {"measurement": "KCHSC Obsd. (observed effect)", "setting": "[17]; 8 g a.i./ha", "result": 0}, {"measurement": "CHEAL Obsd. (observed effect)", "setting": "[18]; 4 g a.i./ha", "result": 0}, {"measurement": "CHEAL Obsd. (observed effect)", "setting": "[18]; 8 g a.i./ha", "result": 0}]}]}
